# Laboratory results as given in patent publication US12409304B2, “Drug delivery devices with drug-permeable component and methods” (TARIS Biomedical LLC, priority 2013, dated 2025).
# Counter-ions that a name gives are not always drawn.
# Columns and labels:
# physchem = conditions: 37 °C, water
# [1] = In vitro drug permeation from Tecophilic film pouches loaded with a gemcitabine tablet (Example 1); assay type: physicochemical; conditions: DI water at 37° C.
# Procedure: Pouches formed of Tecophilic™ film and loaded with gemcitabine (GEM) were tested in vitro for drug permeation. The effect of gamma irradiation on these pouches was also studied. The pouches were made of HP-93A-100 and HP-60D-60 films with thickness of 0.5 mm (films provided by Lubrizol) (http://www.lubrizol.com/Medical/Products/Tecophilic.html). These thermoplastic polyurethanes (TPUs) were selected for their biocompatibility and ability to absorb equilibrium water content up to 100% of the weight of dry resin, as well as other properties. The material properties of the film materials used are given below in Table 1. Each pouch was made out of 2 films which were heat-sealed at all four edges of each pouch after loading each pouch with a single tablet of gemcitabine HCl or base formulated as follows: (1) Gemcitabine HCl: 89% GEM HCl, 10% Isomalt, 1% Lubritab (water insoluble), or […] Some of the pouches were gamma irradiated (25 kGy). The pouches were then placed into 21 mL DI water at 37° C. Thereafter, at each time point, 5× inversion, 1 mL sample was taken out followed by a 1 mL DI water refill.
# [2] = Approximate solubility of drugs in water
# [3] = In vitro gemcitabine release from one-module and four-module devices with end wall disks (Example 5); assay type: physicochemical; conditions: one module device, jar rotated at 4 rpm or not
# Procedure: There were three experimental groups tested: 1) one module device with the releasing jar being rotated in the rotator at 4 rpm ('Rotator'), 2) one module device without the jar rotated ('Static'), and 3) four module device without the jar rotated ('Static'). Each module is comprised of silicone tube made of MED-4750 (Nusil) with the dimensions of 2.64 mm ID and 0.20 mm wall thickness. Multiple gemcitabine HCl tablets with 2.6 mm OD were loaded into the silicone tube with each module having a total gemcitabine HCl payload of approximately 190 mg. The tablet formulation was 90% gemcitabine HCl, 5% PVP, 2.5% Neusilin, and 2.5% magnesium stearate. […] Thermoplastic Polyurethanes) at each end of the tablet drug core. The dimensions of each disk were approximately 0.5 mm thickness and 3.0 mm OD. The OD (3.0 mm) of the disks was larger than the silicone tube ID (2.64 mm), and so the disks were frictionally fit in the silicone tube. Each module has a silicone outer washer, made of MED-4780 (Nusil), located next to each disk with silicone adhesive (MED3-4213) applied around the washer, to stabilize the outward migration of the disk. […] In addition, each module has a polyimide inner washer with 2.67 mm ID, 0.064 mm wall, and approximately 4 mm length. The inner washer was filled with a tablet so that the disk was initially in contact with the tablet. […]
# [4] = In vitro release from Tecophilic film pouches loaded with gemcitabine HCl and urea tablets (Example 1A); assay type: physicochemical; conditions: pouches with 1 gemcitabine HCl tablet and 4 urea tablets, DI water at 37° C.
# Procedure: Pouches constructed as in Example 1 were made, except each was loaded with 1 gemcitabine (GEM) HCl tablet and 4 tablets of urea. The pouches were then placed into 21 mL DI water at 37° C. Thereafter, at each time point, 5× inversion, 1 mL sample was taken out followed by a 1 mL DI water refill.
compound,measurement,setting,value
Nc1ccn([C@@H]2O[C@H](CO)[C@@H](O)C2(F)F)c(=O)n1 [gemcitabine HCl],solubility,physchem,~80 mg/mL
same,relative speed of release from pouches,[1]; comparison of film grades and of drug forms,released faster than gemcitabine base
Nc1ccn([C@@H]2O[C@H](CO)[C@@H](O)C2(F)F)c(=O)n1 [gemcitabine base],approximate solubility,[2]; water at 37° C.,~15 mg/mL
Nc1ccn([C@@H]2O[C@H](CO)[C@@H](O)C2(F)F)c(=O)n1 [gemcitabine],"gemcitabine release rate, Static vs Rotator",[3],no significant difference
same,permeation through 0.5 mm Tecophilic film,[1]; HP-93A-100 and HP-60D-60 pouches,permeated 0.5 mm Tecophilic™ film
same,permeation through 0.5 mm Tecophilic film,[4],permeated 0.5 mm Tecophilic™ film in one day
Cc1ccc(O)c([C@H](CCN(C(C)C)C(C)C)c2ccccc2)c1 [tolterodine tartrate],solubility,physchem,~12 mg/mL
O=C(O[C@H]1C[C@H]2CC[C@@H](C1)[N+]21CCCC1)C(O)(c1ccccc1)c1ccccc1 [trospium chloride],solubility,"[2]; 37 °C, water",~500 mg/mL
NC(N)=O [urea],permeation through 0.5 mm Tecophilic film,[4],permeated 0.5 mm Tecophilic™ film in one day
